Results taken from US11524966B1 (Valo Early Discovery, Inc., priority 2017, dated 2022).

What follows are compounds tested against T1, USP28 (His-tagged USP28-FL-mammalian) (Homo sapiens, UniProt Q96RU2) (assay: Ubiquitin-Rhodamine 110 Assay for USP28 Activity, Example A-1(a)). Details: Ubiquitin-Rhodamine 110 assay, Example A-1(a); read-out: USP28 A-1(a) IC50 range.
T1 construct: Expression of USP28 (1-1077)-TEV-6*His (pTT5 vector); made in house; host or cells: Expi293f cells (pTT5 vector)
T1 sequence (Q96RU2 1-1077): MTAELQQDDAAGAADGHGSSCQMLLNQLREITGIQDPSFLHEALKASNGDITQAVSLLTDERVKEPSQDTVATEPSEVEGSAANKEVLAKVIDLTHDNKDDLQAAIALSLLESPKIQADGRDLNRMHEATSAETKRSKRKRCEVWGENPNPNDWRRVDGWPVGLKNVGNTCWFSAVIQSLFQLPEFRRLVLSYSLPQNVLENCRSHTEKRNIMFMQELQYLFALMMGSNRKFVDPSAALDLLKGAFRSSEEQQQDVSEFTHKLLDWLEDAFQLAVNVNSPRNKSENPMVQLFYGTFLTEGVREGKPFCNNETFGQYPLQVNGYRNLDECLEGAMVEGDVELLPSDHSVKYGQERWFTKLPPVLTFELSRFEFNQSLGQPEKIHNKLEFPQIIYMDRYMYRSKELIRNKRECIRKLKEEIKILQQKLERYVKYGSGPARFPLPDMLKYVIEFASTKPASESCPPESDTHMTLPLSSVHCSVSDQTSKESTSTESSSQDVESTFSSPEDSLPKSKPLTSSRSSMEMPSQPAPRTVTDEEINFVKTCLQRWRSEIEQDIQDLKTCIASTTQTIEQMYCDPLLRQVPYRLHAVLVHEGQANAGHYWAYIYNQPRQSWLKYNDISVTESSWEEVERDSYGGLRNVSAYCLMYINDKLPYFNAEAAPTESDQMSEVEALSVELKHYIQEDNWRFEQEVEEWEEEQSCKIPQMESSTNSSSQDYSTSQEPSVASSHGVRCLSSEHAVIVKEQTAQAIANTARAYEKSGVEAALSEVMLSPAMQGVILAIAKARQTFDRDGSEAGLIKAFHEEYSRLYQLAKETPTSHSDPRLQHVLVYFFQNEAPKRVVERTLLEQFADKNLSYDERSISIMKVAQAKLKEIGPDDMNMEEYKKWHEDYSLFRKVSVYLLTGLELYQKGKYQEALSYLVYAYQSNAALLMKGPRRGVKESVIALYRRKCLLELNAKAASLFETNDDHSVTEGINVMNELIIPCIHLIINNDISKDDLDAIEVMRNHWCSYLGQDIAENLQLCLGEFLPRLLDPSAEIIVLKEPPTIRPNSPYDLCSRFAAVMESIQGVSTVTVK
Assay type: biochemical
Method in brief: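 IC50 from 4-parameter logistic fit of percent inhibition versus no-enzyme and DMSO controls; compounds 25 μM to 1.3 nM, 3-fold. Ub-Rh110 cleavage (25 nM, below Km) by […] mammalian-expressed USP28-FL-His ran 45 min at room temperature, stopped with 10 mM citric acid, read ex 485/em 535.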

| Compound | IC50 |
| --- | --- |
| CO[C@@H]1CN(c2cc3c(c(F)c2F)C[C@@H](NC(=O)c2sc4nc(C)ccc4c2N)CO3)C[C@H]1N [Example 415, 3-amino-N-[(3R)-7-[(3R,4R)-3-amino-4-methoxypyrrolidin-1-yl]-5,6-difluoro-3,4-dihydro-2H-1-benzopyran-3-yl]-6-methylthieno[2,3-b]pyridine-2-carboxamide] | 1 to 50 nM |
| CO[C@H]1CN(c2cc3c(c(F)c2F)C[C@@H](NC(=O)c2sc4nc(C)ccc4c2N)CO3)C[C@@H]1N [Example 416, 3-amino-N-[(3R)-7-[(3S,4S)-3-amino-4-methoxpyrrolidin-1-yl]-5,6-difluoro-3,4-dihydro-2H-1-benzopyran-3-yl]-6-methylthieno[2,3-b]pyridine-2-carboxamide] | 1 to 50 nM |
| Cc1ccc2c(N)c(C(=O)N[C@H]3CCc4cc(N5CCNCC5)c(F)c(F)c4C3)sc2n1 [Example 417, 3-amino-N-[(2S)-7,8-difluoro-6-(piperazin-1-yl)-1,2,3,4-tetrahydronaphthalen-2-yl]-6-methylthieno[2,3-b]pyridine-2-carboxamide] | 200 to 2000 nM |
| Cc1ccc2c(N)c(C(=O)N[C@@H]3CCc4cc(N5CCNCC5)c(F)c(F)c4C3)sc2n1 [Example 418, 3-amino-N-[(2R)-7,8-difluoro-6-(piperazin-1-yl)-1,2,3,4-tetrahydronaphthalen-2-yl]-6-methylthieno[2,3-b]pyridine-2-carboxamide] | 50 to 200 nM |
| Cc1cnc2c(N)c(C(=O)N[C@H]3CCc4cc(N5CC6CNCC(C5)O6)ccc4C3)sc2n1 [Example 448, N-((2S)-6-(9-oxa-3,7-diazabicyclo[3.3.1]nonan-3-yl)-1,2,3,4-tetrahydronaphthalen-2-yl)-7-amino-3-methylthieno[2,3-b]pyrazine-6-carboxamide] | 1 to 50 nM |
| Cc1cnc2c(N)c(C(=O)N[C@@H]3CCc4cc(N5CC6CNCC(C5)O6)ccc4C3)sc2n1 [Example 450, N-((2R)-6-(9-oxa-3,7-diazabicyclo[3.3.1]nonan-3-yl)-1,2,3,4-tetrahydronaphthalen-2-yl)-7-amino-3-methylthieno[2,3-b]pyrazine-6-carboxamide] | 200 to 2000 nM |
| Cc1ccc2c(N)c(C(=O)N[C@@H]3CCc4cc(N5CC6CNCC(C5)O6)ccc4C3)sc2n1 [Example 451, N-((2R)-6-(9-oxa-3,7-diazabicyclo[3.3.1]nonan-3-yl)-1,2,3,4-tetrahydronaphthalen-2-yl)-3-amino-6-methylthieno[2,3-b]pyridine-2-carboxamide] | 50 to 200 nM |
| Cc1cnc2c(N)c(C(=O)N[C@@H]3CCc4cc(N5CCCNCC5)ccc4C3)sc2n1 [Example 452, (R)-N-(6-(1,4-diazepan-1-yl)-1,2,3,4-tetrahydronaphthalen-2-yl)-7-amino-3-methylthieno[2,3-b]pyrazine-6-carboxamide] | 200 to 2000 nM |
| Cc1cnc2c(N)c(C(=O)N[C@H]3CCc4cc(N5CCCNCC5)ccc4C3)sc2n1 [Example 455, (S)-N-(6-(1,4-diazepan-1-yl)-1,2,3,4-tetrahydronaphthalen-2-yl)-7-amino-3-methylthieno[2,3-b]pyrazine-6-carboxamide] | 50 to 200 nM |
| Cc1cnc2c(N)c(C(=O)N[C@H]3CCc4cc(N5CC6COCC(C5)N6)ccc4C3)sc2n1 [Example 456, N-((2S)-6-(3-oxa-7,9-diazabicyclo[3.3.1]nonan-7-yl)-1,2,3,4-tetrahydronaphthalen-2-yl)-7-amino-3-methylthieno[2,3-b]pyrazine-6-carboxamide] | 50 to 200 nM |
| Cc1cccc2c(C(=O)N[C@H]3COc4cc(N5CCNCC5)ccc4C3)cnn12 [Example 458, (R)-7-methyl-N-(7-(piperazin-1-yl)chroman-3-yl)pyrazolo[1,5-a]pyridine-3-carboxamide] | 1 to 50 nM |
| CC(=O)N1CCCc2cc(C(=O)N[C@H]3COc4cc(N5CCNCC5)ccc4C3)ccc21 [Example 459, (R)-1-acetyl-N-(7-(piperazin-1-yl)chroman-3-yl)-1,2,3,4-tetrahydroquinoline-6-carboxamide] | > 2000 nM |
| O=C(N[C@H]1COc2cc(N3CCNCC3)ccc2C1)c1cnn2ccccc12 [Example 460, (R)-N-(7-(piperazin-1-yl)chroman-3-yl)pyrazolo[1,5-a]pyridine-3-carboxamide] | > 2000 nM |
| COc1ccn2ncc(C(=O)N[C@H]3COc4cc(N5CCNCC5)ccc4C3)c2c1 [Example 461, (R)-5-methoxy-N-(7-(piperazin-1-yl)chroman-3-yl)pyrazolo[1,5-a]pyridine-3-carboxamide] | > 2000 nM |
| O=C(N[C@H]1COc2cc(N3CCNCC3)ccc2C1)c1cnn2cc(Cl)ccc12 [Example 462, (R)-6-chloro-N-(7-(piperazin-1-yl)chroman-3-yl)pyrazolo[1,5-a]pyridine-3-carboxamide] | > 2000 nM |
| Cc1cc(C)n2ncc(C(=O)N[C@H]3COc4cc(N5CCNCC5)ccc4C3)c2n1 [Example 463, (R)-5,7-dimethyl-N-(7-(piperazin-1-yl)chroman-3-yl)pyrazolo[1,5-a]pyrimidine-3-carboxamide] | > 2000 nM |
| O=C(N[C@H]1COc2cc(N3CCNCC3)ccc2C1)c1cn2nc(Cl)ccc2n1 [Example 464, (R)-6-chloro-N-(7-(piperazin-1-yl)chroman-3-yl)imidazo[1,2-b]pyridazine-2-carboxamide] | > 2000 nM |
| Cc1ccn2ncc(C(=O)N[C@H]3COc4cc(N5CCNCC5)ccc4C3)c2c1 [Example 465, (R)-5-methyl-N-(7-(piperazin-1-yl)chroman-3-yl)pyrazolo[1,5-a]pyridine-3-carboxamide] | > 2000 nM |
| O=C(N[C@H]1COc2cc(N3CCNCC3)ccc2C1)c1cnn2cccnc12 [Example 466, (R)-N-(7-(piperazin-1-yl)chroman-3-yl)pyrazolo[1,5-a]pyrimidine-3-carboxamide] | > 2000 nM |
| O=C(N[C@H]1COc2cc(N3CCNCC3)ccc2C1)c1ccc(NCc2cccc(Cl)c2)nc1 [Example 467, (R)-6-((3-chlorobenzyl)amino)-N-(7-(piperazin-1-yl)chroman-3-yl)nicotinamide] | 200 to 2000 nM |
| O=C(N[C@H]1COc2cc(N3CCNCC3)ccc2C1)c1ccc(NCc2cccnc2)nc1 [Example 468, (R)-N-(7-(piperazin-1-yl)chroman-3-yl)-6-((pyridin-3-ylmethyl)amino)nicotinamide] | 200 to 2000 nM |
| O=C(N[C@H]1COc2cc(N3CCNCC3)ccc2C1)c1ccc(NCc2cccc(C(F)(F)F)c2)nc1 [Example 469, (R)-N-(7-(piperazin-1-yl)chroman-3-yl)-6-((3-(trifluoromethyl)benzyl)amino)nicotinamide] | 50 to 200 nM |
| O=C(N[C@H]1COc2cc(N3CCNCC3)ccc2C1)c1ccc(NCc2ccccn2)nc1 [Example 470, (R)-N-(7-(piperazin-1-yl)chroman-3-yl)-6-((pyridin-2-ylmethyl)amino)nicotinamide] | > 2000 nM |
| O=C(N[C@H]1COc2cc(N3CCNCC3)ccc2C1)c1ccc(NCc2ccc3c(c2)OCCO3)nc1 [Example 471, (R)-6-(((2,3-dihydrobenzo[b][1,4]dioxin-6-yl)methyl)amino)-N-(7-(piperazin-1-yl)chroman-3-yl)nicotinamide] | 200 to 2000 nM |
| O=C(N[C@H]1COc2cc(N3CCNCC3)ccc2C1)c1ccc(NCc2ccc3c(c2)CCO3)nc1 [Example 472, (R)-6-(((2,3-dihydrobenzofuran-5-yl)methyl)amino)-N-(7-(piperazin-1-yl)chroman-3-yl)nicotinamide] | 200 to 2000 nM |
